Test results as given in patent US6500455B1, “Tolperison-containing, pharmaceutical preparation for oral administration” (Sanochemia Pharmazeutika, priority 1999, dated 2002).

What was measured:
[1] = effectiveness of the Tolperison isomers; conditions: comparison of (−) isomer, (+) isomer and racemic mixtures
[2] = blood (of humans); active ingredient present as 50/50 racemate; cited from earlier work

For Cc1ccc(C(=O)C(C)CN2CCCCC2)cc1 (single isomer, unassigned; (+)) [(+) isomer], the “effectiveness of the isomers compared with each other” value [1] is given as “almost identically effective” and the “proportion of the isomer present in the blood” value [2] is given as at most 10%.

In the case of Cc1ccc(C(=O)C(C)CN2CCCCC2)cc1 (single isomer, unassigned; (-)) [(−) isomer, 2,4′-dimethyl-3-piperidonopropriophenone], the “effectiveness of the isomers compared with each other” value [1] is listed as “almost identically effective” and the “proportion of the isomer present in the blood” value [2] is listed as “up to 90%”.
